In this data set the test system is Mus musculus. The data set can be described thus: Toxicity in ip dosed mouse assessed as respiratory arrest. Format: organism-based. The settings on record: in vivo.

For `C=C1[C@@H]2CCC3[C@@](CC[C@@H]4[C@H](C(=O)O)C[C@@H](O[C@@H]5O[C@H](CO)[C@@H](OS(=O)(=O)[O-])[C@H](OS(=O)(=O)[O-])[C@H]5OC(=O)CC(C)C)C[C@@]34C)(C2)[C@@H]1O.[K+].[K+]` (stereo partly specified) [ATRACTYLOSIDE], the Activity result is on record as “Toxic”.

For the origin of these results see ChEMBL document CHEMBL1151636, “Atractyloside, toxic compound from Wedelia glauca” (J Nat Prod, 1984).
